Test [1] deals with erythrocyte (red blood cell) fructose and sorbitol. Kind of test: erythrocyte fructose and sorbitol in streptozocin-diabetic rats after a single oral dose. Format: in vivo, rat (male Sprague-Dawley). The settings on record: single oral dose 10, 50, 100 or 300 mg/kg. Here is the method:
(§1) Male Sprague-Dawley rats (350-400 g) were used for these experiments. Diabetes was induced in some of the rats by a tail vein injection of streptozocin, 85 mg/kg. Twenty-four hours later, 4 groups of diabetic rats were given a single dose of 4-[4-(N,N-dimethylsulfamoyl)-piperazino]-2-methylpyrimidine (10, 50, 100, or 300 mg/kg) by oral gavage. Animals were sacrificed 4-6 hours after dosing and blood and sciatic nerves were harvested. Tissues and cells were extracted with 6% perchloric acid.
(§2) Sorbitol in erythrocytes and nerves was measured by a modification of the method of R. S. Clements et al. (Science, 166: 1007-8, 1969). […] After incubation for 30 minutes at room temperature, sample fluorescence was determined on a fluorescence spectrophotometer with excitation at 366 nm and emission at 452 nm. After subtracting appropriate blanks, the amount of sorbitol in each sample was determined from a linear regression of sorbitol standards processed in the same manner as the tissue extracts.
(§3) Fructose was determined by a modification of the method described by M. Ameyama, Methods in Enzymology, 89: 20-25 (1982). […] After incubation for 60 minnutes at room temperature, sample fluorescence was determined on a fluorescence spectrophotometer with excitation at 560 nm and emission at 580 nm. […]

Test [2] deals with T1, sorbitol dehydrogenase (Ovis aries, UniProt P07846).
T1 sequence (P07846 1-354): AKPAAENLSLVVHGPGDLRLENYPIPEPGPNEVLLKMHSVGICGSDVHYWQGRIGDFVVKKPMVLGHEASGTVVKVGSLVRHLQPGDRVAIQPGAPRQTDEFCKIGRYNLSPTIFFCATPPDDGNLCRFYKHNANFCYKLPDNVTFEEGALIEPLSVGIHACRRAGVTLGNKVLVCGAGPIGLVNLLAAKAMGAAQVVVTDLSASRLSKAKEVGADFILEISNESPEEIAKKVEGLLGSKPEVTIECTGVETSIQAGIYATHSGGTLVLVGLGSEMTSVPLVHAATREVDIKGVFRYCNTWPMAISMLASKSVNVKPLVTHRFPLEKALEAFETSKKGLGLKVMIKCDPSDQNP
Kind of test: inhibition of sorbitol dehydrogenase in vitro (direct test). Format: biochemical. The settings on record: tested directly on sorbitol dehydrogenase in vitro. Here is the method: (§4) SDH activity was measured by a modification of the method described by U. Gerlach, Methodology of Enzymatic Analyses, edited by H. U. Bergmeyer, 3, 112-117 (1983). Aliquots of sera or urine were added to the assay system, which had final concentrations of reagents of 0.1M potassium phosphate buffer, pH 7.4, 5 mM NAD, 20 mM sorbitol, and 0.7 units/ml of sorbitol dehydrogenase. After incubation for 10 minutes at room temperature, the average change in sample absorbance was determined at 340 nm. SDH activity was presented as milliOD340 units/minute (OD340 =optical density at 340 nm).
The IC50 values indicate the concentration at which fifty percent inhibition of sorbitol dehydrogenase in vitro was observed.

The target of test [3] is T1, sorbitol dehydrogenase. Put plainly: in vitro inhibition of sorbitol dehydrogenase by urine from dosed rats. Format: biochemical. As for the experimental part: as §4
Test [4] concerns the target T1, sorbitol dehydrogenase. Kind of test: in vitro inhibition of sorbitol dehydrogenase by sera from dosed rats. It counts as biochemical. The settings on record: sera from rats dosed with the compound (FIG. 5). Here is the method: as §1, §4
Test [5] has as its system sciatic nerve fructose and sorbitol. Put plainly: sciatic nerve fructose and sorbitol in streptozocin-diabetic rats after a single oral dose. Format: in vivo, rat (male Sprague-Dawley). The settings on record: single oral dose 10, 50, 100 or 300 mg/kg, 4-6 hours after dosing (FIG. 4). Here is the method: as §1, §2, §3

The IC50 is the point on the concentration scale where inhibition reaches its midpoint. A low value points to greater potency. On to `Cc1nccc(N2CCN(S(=O)(=O)N(C)C)CC2)n1` [Compound 1, 4-[4-(N,N-dimethylsulfamoyl)-piperazino]-2-methylpyrimidine], for which, in test [1] (4-6 hours after dosing (FIG. 1)), the “erythrocyte (RBC) fructose” value is recorded as “dose dependently lowered”. In test [1] (4-6 hours after dosing (FIG. 2)), the erythrocyte sorbitol entry is on record as “dose dependently raised”. This compound also returned an IC50 in test [2] of 500 µM. The “inhibition of SDH with as little as 0.5 μl of urine” value in test [3] (0.5 μl of urine of dosed animals (FIG. 6)) is “strong inhibition”. Also, in test [3] (urine (FIG. 6) compared with sera (FIG. 5)), the “SDH inhibitory activity of urine compared with sera” value was “even more potent source of SDH inhibitory activity”. The “inhibition of SDH in vitro by urine of dosed animals” value in test [3] (urine of animals dosed with the compound (FIG. 6)) was “potently inhibited SDH in vitro in a dose dependent manner”. Besides, in test [4], the “inhibition of SDH in vitro by sera from dosed rats” value was “potently inhibited SDH in vitro in a dose dependent manner”. Also, the sciatic nerve sorbitol entry in test [5] is reported as “increase in sorbitol”.

The record behind these values is patent US5728704A, “Substituted pyridmidines for control of diabetic complications” (Pfizer Inc., priority 1995, dated 1998).
